Calls of active or inactive are those of the source. The calls are words filed in the database; no cut-off is given here.
Key:
Progesterone receptor = molecular target: T1, Progesterone receptor (Homo sapiens, UniProt P06401); test: Antagonist activity at progesterone receptor in human T47D cells assessed as inhibition of progesterone-induced alkaline phosphatase activity; format: functional, cell-based
T1 sequence (P06401 whole entry): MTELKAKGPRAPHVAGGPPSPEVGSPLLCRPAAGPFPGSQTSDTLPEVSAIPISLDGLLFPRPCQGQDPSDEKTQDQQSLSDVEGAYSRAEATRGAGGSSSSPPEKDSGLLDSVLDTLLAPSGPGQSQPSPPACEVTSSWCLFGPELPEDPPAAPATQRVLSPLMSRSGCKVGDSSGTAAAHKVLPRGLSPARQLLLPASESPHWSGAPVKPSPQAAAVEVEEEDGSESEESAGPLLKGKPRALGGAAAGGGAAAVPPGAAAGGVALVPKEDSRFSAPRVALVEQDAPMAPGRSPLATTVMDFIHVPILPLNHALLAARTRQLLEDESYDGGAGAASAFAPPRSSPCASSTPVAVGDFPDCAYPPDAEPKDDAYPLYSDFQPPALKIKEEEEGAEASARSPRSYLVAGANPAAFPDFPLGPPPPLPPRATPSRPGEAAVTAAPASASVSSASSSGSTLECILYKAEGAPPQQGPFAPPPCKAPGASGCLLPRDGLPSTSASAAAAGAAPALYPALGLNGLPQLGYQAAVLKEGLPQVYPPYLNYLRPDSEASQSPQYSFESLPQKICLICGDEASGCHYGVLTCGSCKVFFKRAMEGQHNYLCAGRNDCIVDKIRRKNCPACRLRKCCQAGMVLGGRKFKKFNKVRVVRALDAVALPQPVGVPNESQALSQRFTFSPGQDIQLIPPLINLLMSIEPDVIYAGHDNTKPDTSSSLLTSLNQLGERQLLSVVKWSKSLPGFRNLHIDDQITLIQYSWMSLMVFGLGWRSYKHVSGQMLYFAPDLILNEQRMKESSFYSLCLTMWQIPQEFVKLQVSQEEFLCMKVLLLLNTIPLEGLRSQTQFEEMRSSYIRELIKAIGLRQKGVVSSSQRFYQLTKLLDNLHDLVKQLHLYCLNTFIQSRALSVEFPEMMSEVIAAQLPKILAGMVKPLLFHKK

Androgen receptor = molecular target: T2, Androgen receptor (Homo sapiens, UniProt P10275); test: Antagonist activity at androgen receptor ligand binding domain by two hybrid assay
T2 sequence (P10275 whole entry): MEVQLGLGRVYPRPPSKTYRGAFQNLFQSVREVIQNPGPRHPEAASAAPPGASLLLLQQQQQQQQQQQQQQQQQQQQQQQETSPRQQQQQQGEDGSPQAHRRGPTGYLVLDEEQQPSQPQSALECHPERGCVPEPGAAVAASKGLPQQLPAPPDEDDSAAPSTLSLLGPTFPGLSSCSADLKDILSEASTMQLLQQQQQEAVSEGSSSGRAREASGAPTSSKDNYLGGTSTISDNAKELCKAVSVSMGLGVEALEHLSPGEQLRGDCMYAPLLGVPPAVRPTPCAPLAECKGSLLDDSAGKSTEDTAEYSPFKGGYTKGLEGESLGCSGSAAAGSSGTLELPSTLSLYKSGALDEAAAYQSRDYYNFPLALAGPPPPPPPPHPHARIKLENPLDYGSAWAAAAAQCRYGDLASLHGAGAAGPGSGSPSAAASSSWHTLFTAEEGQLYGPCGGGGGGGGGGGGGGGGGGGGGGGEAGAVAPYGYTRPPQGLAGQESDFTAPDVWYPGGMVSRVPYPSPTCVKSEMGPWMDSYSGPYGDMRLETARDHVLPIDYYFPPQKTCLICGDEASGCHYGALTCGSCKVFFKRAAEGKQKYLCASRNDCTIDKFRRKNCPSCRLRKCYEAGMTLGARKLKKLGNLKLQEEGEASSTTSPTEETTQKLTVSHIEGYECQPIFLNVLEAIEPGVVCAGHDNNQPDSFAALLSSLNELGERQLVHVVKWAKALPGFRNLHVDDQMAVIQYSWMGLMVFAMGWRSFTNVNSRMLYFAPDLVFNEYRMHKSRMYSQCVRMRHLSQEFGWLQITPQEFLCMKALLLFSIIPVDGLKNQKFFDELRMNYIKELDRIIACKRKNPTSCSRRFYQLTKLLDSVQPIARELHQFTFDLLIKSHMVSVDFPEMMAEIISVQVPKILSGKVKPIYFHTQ

[1] = molecular target: T3, Mineralocorticoid receptor (Homo sapiens) (UniProt P08235); test: Antagonist activity at mineralocorticoid receptor ligand binding domain up to 10 uM by two hybrid assay
T3 sequence (whole entry): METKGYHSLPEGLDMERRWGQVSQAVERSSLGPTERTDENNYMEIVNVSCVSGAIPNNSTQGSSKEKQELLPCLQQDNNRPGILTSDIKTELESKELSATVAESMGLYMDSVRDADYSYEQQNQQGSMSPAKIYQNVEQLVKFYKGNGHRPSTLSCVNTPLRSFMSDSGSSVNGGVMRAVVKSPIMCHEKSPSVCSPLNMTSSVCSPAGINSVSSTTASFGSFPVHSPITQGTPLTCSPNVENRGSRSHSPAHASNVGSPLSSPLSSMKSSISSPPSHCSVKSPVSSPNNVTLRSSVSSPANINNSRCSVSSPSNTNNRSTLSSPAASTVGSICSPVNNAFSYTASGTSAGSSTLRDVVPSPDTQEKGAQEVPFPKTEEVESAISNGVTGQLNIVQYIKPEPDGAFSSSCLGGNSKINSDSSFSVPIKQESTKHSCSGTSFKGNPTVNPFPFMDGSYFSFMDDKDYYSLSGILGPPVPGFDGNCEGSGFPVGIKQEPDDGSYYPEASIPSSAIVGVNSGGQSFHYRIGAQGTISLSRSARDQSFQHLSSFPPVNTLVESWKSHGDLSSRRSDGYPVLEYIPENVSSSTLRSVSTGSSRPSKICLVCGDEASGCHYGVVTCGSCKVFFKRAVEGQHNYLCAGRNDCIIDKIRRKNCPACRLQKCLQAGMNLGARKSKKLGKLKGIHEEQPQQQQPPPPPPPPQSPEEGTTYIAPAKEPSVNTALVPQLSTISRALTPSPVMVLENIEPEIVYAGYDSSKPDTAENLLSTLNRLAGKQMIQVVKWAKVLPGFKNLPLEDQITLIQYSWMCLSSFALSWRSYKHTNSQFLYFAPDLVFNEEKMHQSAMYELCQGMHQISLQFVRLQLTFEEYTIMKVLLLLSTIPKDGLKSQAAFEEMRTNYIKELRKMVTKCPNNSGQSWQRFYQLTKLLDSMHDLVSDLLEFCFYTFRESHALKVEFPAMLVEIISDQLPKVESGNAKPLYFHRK

[2] = molecular target: T4, Glucocorticoid receptor (Homo sapiens) (UniProt P04150); test: Antagonist activity at glucocorticoid receptor ligand binding domain up to 10 uM by two hybrid assay
T4 sequence (whole entry): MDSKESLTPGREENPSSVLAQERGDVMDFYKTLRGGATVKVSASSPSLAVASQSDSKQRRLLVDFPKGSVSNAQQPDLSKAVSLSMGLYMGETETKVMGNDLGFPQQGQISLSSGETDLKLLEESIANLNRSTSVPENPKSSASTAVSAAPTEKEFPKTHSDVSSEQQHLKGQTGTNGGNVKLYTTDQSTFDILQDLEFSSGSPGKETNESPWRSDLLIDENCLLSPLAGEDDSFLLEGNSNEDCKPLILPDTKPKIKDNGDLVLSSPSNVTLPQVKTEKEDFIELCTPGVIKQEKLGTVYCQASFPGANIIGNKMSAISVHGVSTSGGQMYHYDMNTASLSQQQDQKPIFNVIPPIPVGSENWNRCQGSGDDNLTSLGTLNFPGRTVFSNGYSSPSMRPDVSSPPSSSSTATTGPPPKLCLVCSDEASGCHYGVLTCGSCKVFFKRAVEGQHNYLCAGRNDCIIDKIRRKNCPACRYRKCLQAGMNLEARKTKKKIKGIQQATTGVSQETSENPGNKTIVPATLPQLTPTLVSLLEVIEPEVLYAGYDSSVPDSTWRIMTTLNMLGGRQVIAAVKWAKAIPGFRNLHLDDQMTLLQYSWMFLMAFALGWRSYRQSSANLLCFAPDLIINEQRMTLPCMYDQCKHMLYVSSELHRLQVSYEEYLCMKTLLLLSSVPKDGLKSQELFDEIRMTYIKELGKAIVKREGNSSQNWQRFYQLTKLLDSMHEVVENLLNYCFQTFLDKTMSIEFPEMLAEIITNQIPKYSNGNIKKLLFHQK

[3] = molecular target: T5, Estrogen receptor (Homo sapiens) (UniProt P03372); test: Antagonist activity at estrogen receptor ligand binding domain up to 10 uM by two hybrid assay
T5 sequence (whole entry): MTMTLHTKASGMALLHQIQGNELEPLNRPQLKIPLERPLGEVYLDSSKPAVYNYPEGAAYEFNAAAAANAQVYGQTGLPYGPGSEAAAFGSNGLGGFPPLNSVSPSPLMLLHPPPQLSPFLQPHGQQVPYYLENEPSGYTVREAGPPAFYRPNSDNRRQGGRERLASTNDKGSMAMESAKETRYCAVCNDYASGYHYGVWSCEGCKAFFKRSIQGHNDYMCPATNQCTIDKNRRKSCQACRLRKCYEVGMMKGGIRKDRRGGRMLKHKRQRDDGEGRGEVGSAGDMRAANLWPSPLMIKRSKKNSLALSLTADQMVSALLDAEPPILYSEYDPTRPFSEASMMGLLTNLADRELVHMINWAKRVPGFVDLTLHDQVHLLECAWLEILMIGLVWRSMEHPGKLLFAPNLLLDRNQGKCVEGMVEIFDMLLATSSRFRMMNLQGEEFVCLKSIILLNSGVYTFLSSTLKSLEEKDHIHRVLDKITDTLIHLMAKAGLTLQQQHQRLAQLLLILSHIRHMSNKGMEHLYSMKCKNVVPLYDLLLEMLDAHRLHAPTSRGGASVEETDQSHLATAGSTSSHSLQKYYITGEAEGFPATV

| SMILES | IC50 (Progesterone receptor) | further results |
| --- | --- | --- |
| CCC(O)c1ccc(-c2ccc(C#N)n2C)cc1 (stereo not drawn) | 27 nM |  |
| CC#CC1(O)CCCc2cc(-c3ccc(C#N)n3C)ccc21 (stereo not drawn) | 10 nM |  |
| Cn1c(C#N)ccc1-c1ccc2c(c1)CCCC2O (stereo not drawn) | 7 nM |  |
| Cn1c(C#N)ccc1-c1ccc(C(=O)C(C)(C)C)cc1 | 3 nM | IC50 (Androgen receptor): 100 nM; inhibition [1]: inactive; inhibition [2]: inactive; inhibition [3]: inactive |
| Cn1c(C#N)ccc1-c1ccc2c(c1)CCCC2(O)c1ccccc1 (stereo not drawn) | 35 nM |  |
| CC(O)c1ccc(-c2ccc(C#N)n2C)cc1 (stereo not drawn) | 36 nM |  |
| CC/C(=N/O)c1ccc(-c2ccc(C#N)n2C)cc1 | 17 nM |  |
| Cn1c(C#N)ccc1-c1ccc2c(c1)CCCC2(C)O (stereo not drawn) | 6 nM |  |
| Cn1c(C#N)ccc1-c1ccc(/C(=N\O)C(C)(C)C)cc1 | 3 nM | IC50 (Androgen receptor): 165 nM; inhibition [1]: inactive; inhibition [2]: inactive; inhibition [3]: inactive |
| Cn1c(C#N)ccc1-c1ccc(C(O)c2cccs2)cc1 (stereo not drawn) | 47 nM |  |
| Cn1c(C#N)ccc1-c1ccc2c(c1)CCCC2=O | 28 nM |  |
| Cn1c(C#N)ccc1-c1ccc(C(O)c2ccccc2)cc1 (stereo not drawn) | 118 nM |  |
| C/C(=N/O)c1ccc(-c2ccc(C#N)n2C)cc1 | 108 nM |  |
| Cn1c(C#N)ccc1-c1ccc2c(c1)CCC/C2=N/O | 33 nM |  |
| CC(=O)c1ccc(-c2ccc(C#N)n2C)cc1 | 800 nM |  |

Reference: ChEMBL document CHEMBL1208786, “1-Methyl-1H-pyrrole-2-carbonitrile containing tetrahydronaphthalene derivatives as non-steroidal progesterone receptor antagonists” (Bioorg Med Chem Lett, 2010)
